Measurements from PMC5593639, “NSC30049 inhibits Chk1 pathway in 5-FU-resistant CRC bulk and stem cell populations” (Oncotarget, 2017).

Tests used:
HCT-116 cells = test: Cell survival (MTT assay), HCT-116; format: cell-based, human; conditions: Homo sapiens, HCT-116, 48 h
Method: (§1) The survival of cells was determined by MTT (3-(4,5-Dimethylthiazol-2yl-)-2,5-diphenyl tetrazolium bromide) assay (ATCC, Manassas, VA, USA). In principle, the viable cell number is directly proportional to the purple formazan color of the reduced MTT dye, which can be quantitatively measured by spectrophotometry. Briefly, 1,500 cells were plated in quadruplets in 96-well flat-bottom tissue culture plates. After treatment with compounds for certain periods as described in respective figure legends, 10 μl of MTT reagent was added to each well and incubated at 37°C for 4 h to allow the formation of purple color crystals of formazan. In total, 100 μl of detergent solution was added to each well, and the reaction mixture was incubated in dark for 2–4 h at room temperature. The developed color density was then measured spectrophotometrically at 570 nm using the POLARstar Omega micro-plate reader (BMG Labtech, Inc., Cary, NC, USA).

SW480 cells = test: Cell survival (MTT assay), SW480; format: cell-based; conditions: Homo sapiens, drug alone, 48 h
Method: as §1

RKO cells = test: Cell survival (MTT assay), RKO; format: cell-based; conditions: Homo sapiens, drug alone, 48 h
Method: as §1

[1] = tested on: FOLFOX-resistant-HT29 cells; test: Cell survival (MTT assay), FOLFOX-resistant-HT29; format: cell-based; conditions: Homo sapiens, FOLFOX-resistant HT-29, 48 h
Method: In some experiments, 5-FU, leucovorin and oxaliplatin (FOLFOX)-resistant-HCT-116 and FOLFOX-resistant-HT29 cells were used. These cells were obtained from Dr. Adhip P. Majumdar (John D. Dingell VA Medical Center, Detroit, MI). These cells were generated by exposure to clinically relevant doses and schedules. The exposing schedule was for 12 cycles; each cycle lasted for one week. Briefly, the cells were first exposed to FOLFOX (25 μM 5-FU and 0.625 μM oxaliplatin) for 72 hours. The surviving cells were then cultured in normal medium without the drugs for 4 to 5 days. This cycle was repeated 12 times. The surviving cells were then split and exposed to higher doses of FOLFOX (50 μM 5-FU + 1.25 μM oxaliplatin or 100 μM 5-FU + 2.5 μM oxaliplatin) for 2 to 3 days per week for approximately 4 weeks. […]
The survival of cells was determined by MTT (3-(4,5-Dimethylthiazol-2yl-)-2,5-diphenyl tetrazolium bromide) assay (ATCC, Manassas, VA, USA). In principle, the viable cell number is directly proportional to the purple formazan color of the reduced MTT dye, which can be quantitatively measured by spectrophotometry. […] The developed color density was then measured spectrophotometrically at 570 nm using the POLARstar Omega micro-plate reader (BMG Labtech, Inc., Cary, NC, USA).

CA2 CRC stem cell line = test: Spheroid (sphere) formation assay; format: cell-based; conditions: Homo sapiens; drug alone, seventh day
Method: Live CA2 cells (100) were seeded in 384-well ultra-low attachment plates. Next, day cells were treated with different concentrations of NSC49L and 5-FU either alone or in combination. Cells were incubated for 7 days and the number of spheroids were counted in control and treated groups under an Olympus inverted microscope with a 10× magnification.

HT29 cells = test: Cell cycle profile by FACS; format: cell-based, human; conditions: 2 mM HU 24 h
Method: For determining the cell cycle profile, cells were plated in 60 mm tissue culture dishes and grown until 60% confluence. […] After treatment, cells were harvested at different time intervals, washed with ice-cold PBS and processed for FACS analysis as described previously. The ranges for G0/G1, S, and G2/M phase arrested and sub-G1 apoptotic cells were established on the basis of the corresponding DNA content of the histograms. At minimum, 10,000 cells were counted from each sample.

[2] = tested on: Chk1 phosphorylation in HT29 cells; test: Western blot of total and phosphorylated Chk1, HT29; format: cell-based, human
Method: (§2) The levels of various proteins were determined by Western blot analysis with our previously described procedure. The antibodies for phospho-Chk1(Ser317), phospho-Chk1(Ser317), phospho-Chk1(Ser319), phospho-Chk1(Ser345), Chk1, and GAPDH were purchased from Cell Signaling Technology (Danvers, MA, USA).

[3] = tested on: Chk1 phosphorylation in HCT-116 cells; test: Western blot of total and phosphorylated Chk1, HCT-116; format: cell-based, human; conditions: NSC49L alone, 24 h
Method: as §2

HCT116(p53+/+) cells = test: MTT assay, IC50 of HU, HCT116(p53+/+); format: cell-based, human; conditions: HU combined with NSC49L, 72 h
Method: as §1

HCT116(p53−/−) cells = test: MTT assay, IC50 of HU, HCT116(p53−/−); format: cell-based, human; conditions: HU combined with NSC49L, 72 h
Method: as §1

[4] = Pharmacokinetic analysis in CD1 mice; format: in vivo, male CD1 mice; conditions: 20 mg/kg body weight, IP, plasma
Method: Pharmacokinetic analysis of NSC30049 in CD1 mice was determined by Pharmaron, Inc. (Louisville, KY, USA). Mice were injected intraperitoneally (IP) with NSC49L (20 mg/kg body weight) and approximately 0.04 ml blood was collected at 0, 5, 15 and 30 min, 1, 2, 4, 8 and 24 h time point. Blood of each sample was transferred into plastic micro-centrifuge tubes containing 2 μl of Heparin (1,000 IU). Samples were stored in a freezer at −75 ± 15°C prior to analysis. Concentrations of NSC49L in the plasma samples was analyzed using a LC-MS/MS method. WinNonlin® (Phoenix®, version 6.1) software was used for pharmacokinetic calculations. The following pharmacokinetic parameters were calculated from the plasma concentration versus time data: T1/2, Cmax, AUClast, AUCinf, AUCextra%, Number of Points for Regression. The pharmacokinetic data is described using mean ± standard deviation (SD) and n = 3.

[5] = Maximum tolerated dose and pathological analysis of organs; format: in vivo, male SCID mice
Method: We have determined the MTD of NSC49L from male homozygous CB17 scid/scid (SCID) mice obtained from Tacomic Farms (Germantown, NY, USA). The mice were treated subcutaneously at 25, 50, and 75 mg/kg body weight for 5 consecutive days followed by observation for an additional 7 days. Every day body weight was recorded and behavioral changes were monitored in the treated versus control animals. After the 7th day animals were sacrificed and the organs from the mice treated at 75 mg/kg body weight were processed for pathological examination. Different organs were fixed in 10% buffered formalin, then sectioned and processed into paraffin blocks. Tissue sections were cut 4–5 μm thick and stained with hematoxylin and eosin. Histologic differences between control (A) and treated (B) mice were recorded and photomicrographs were taken with Olympus, BX41 microscope with attached camera.

[6] = HU withdrawn, then 20 μM NSC49L 8 h
[7] = then 20 μM NSC49L additional 8 h in presence of HU
[8] = 2 mM HU 24 h, then NSC49L 5, 10, 20 μM additional 8 h

ClC/C=C/C[N+]12CN3CN(CN(C3)C1)C2 [NSC49L]
IC50 (HCT-116 cells; MTT assay, Figure 1B, three experiments): 3.9 µM | IC50 (HCT-116 cells; drug alone, MTT, Table 1, four estimations): 2.8 ± 0.5 µM | IC50 (SW480 cells): 4.4 ± 0.2 µM | IC50 (RKO cells): 4.9 ± 0.4 µM | IC50 [1]: 3.1 µM | IC50 (CA2 CRC stem cell line): 4.8 µM | Cell cycle distribution G2/M (HT29 cells; [6]): 26.1% | Cell cycle distribution S (S-phase arrest) (HT29 cells; [6]): 50.6% | Cell cycle distribution S (S-phase arrest) (HT29 cells; [7]): 39.7% | Entry of G2/M-phase (HT29 cells; [7]): complete blockage to the entry of G2/M-phase | Chk1(S296P) levels [2, 8]: increased at low concentrations of NSC49L (5 μM), but decreased at 10 and 20 μM concentrations | Chk1(S317P) level [2, 8]: decreased in a dose-dependent manner | Chk1(S345P) level ([2]; 2 mM HU 24 h, then NSC49L additional 8 h): increased above the HU treatment level in a dose-dependent manner | Chk1 phosphorylation ([2]; NSC49L alone, 8 h): did not show any significant effect | Chk1(S317P) and Chk1(S296P) levels [3]: no effect | Chk1(S345P) levels [3]: dose-dependent increase | IC50 of HU (HCT116(p53+/+) cells): further decreased | IC50 of HU (HCT116(p53−/−) cells): further decreased | AUC_%Extrap_obs [4]: 0.187 ± 293% | AUC(0-inf) ([4]; male, CD1, mouse): 1310 ± 89 ng·h/mL | AUC(0-t) ([4]; male, CD1, mouse): 1310 ± 86 ng·h/mL | Cmax ([4]; male, CD1, mouse): 5530 ng/mL | Tmax ([4]; male, CD1, mouse): 4.98 min | half-life ([4]; male, CD1, mouse, n = 3): 14 ± 5.88 min | AUC ([4]; male, CD1, mouse, read-out: AUC (bioavailability)): 1310 ± 86 ng·h/mL | Histologic sections of organs ([5]; 75 mg/kg body weight, bone marrow, brain, kidney, liver, lung, pancreas): no significant differences between control and treated mice | Body weight, behavior, pathological abnormalities ([5]; 25, 50 and 75 mg/kg body weight, 5 consecutive days, 7 days observation, treated versus control): no change in body weight, behavior, or pathological abnormalities
